# Measurements from PubChem BioAssay (NCI).
#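 Step 1: Grow cells in 96-well plates. Step 2: Expose to compound for 48 hours at 5 concentrations. Step 3: Interpolate endpoints linearly; if unreached, use highest concentration. The concentration for full growth arrest is given as TGI.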
# What was measured:
# Test in all cases: NCI anticancer screen, dose series, 48 h
# [1] = test system: A549 NSCLC
# [2] = test system: T-47D breast
# [3] = test system: 786-0 renal
# [4] = test system: UO-31 renal
# [5] = test system: K-562 leukemia
# [6] = test system: MDA-MB-231 breast
# [7] = test system: NCI-H460 lung
# [8] = test system: LOX IMVI melanoma
# [9] = test system: HCT-116 colon
# [10] = test system: MDA-N
# [11] = test system: SW-620 colon
# [12] = test system: RPMI-8226 leukemia
# [13] = test system: HCT-15 colon
# [14] = test system: SNB-75 CNS
# [15] = test system: ACHN renal
# [16] = test system: SR leukemia
# [17] = test system: NCI/ADR-RES ovarian
# [18] = test system: NCI-H522 lung
# [19] = test system: OVCAR-8 ovarian
# [20] = test system: MCF7 breast
# [21] = test system: HL-60(TB) leukemia
# [22] = test system: EKVX NSCLC
# [23] = test system: KM12 colon
# [24] = test system: CAKI-1 renal
# [25] = test system: IGROV1 ovarian
# [26] = test system: HS 578T breast
# [27] = test system: TK-10 renal
# [28] = test system: SK-MEL-2 melanoma
# [29] = test system: MDA-MB-435
# [30] = test system: HOP-62 NSCLC
# [31] = test system: HT29 colon
# [32] = test system: M14 melanoma
# [33] = test system: MOLT-4 leukemia
# [34] = test system: DU-145 prostate
# [35] = test system: NCI-H226 lung
# [36] = test system: OVCAR-5 ovarian
# [37] = test system: SF-268 CNS
# [38] = test system: NCI-H23 lung
# [39] = test system: UACC-257 melanoma
# [40] = test system: HOP-92 NSCLC
# [41] = test system: SF-539 CNS
# [42] = test system: BT-549 breast
# [43] = test system: SK-MEL-5 melanoma
# [44] = test system: A498 renal
# [45] = test system: PC-3 prostate
# [46] = test system: OVCAR-4 ovarian
# [47] = test system: HCC-2998 colon
# [48] = test system: U251 CNS
# [49] = test system: RXF 393 renal
# [50] = test system: SK-MEL-28 melanoma
# [51] = test system: OVCAR-3 ovarian
# [52] = test system: SF-295 CNS
# [53] = test system: COLO 205 colon
# [54] = test system: SN12C renal
# [55] = test system: UACC-62 melanoma
# [56] = test system: SK-OV-3 ovarian
# [57] = test system: SNB-19 CNS
# [58] = test system: CCRF-CEM leukemia
# [59] = test system: MALME-3M melanoma
compound,measurement,setting,value
COc1cc(/C=C2\N=C(c3ccccc3)N(C3Nc4cc5c(cc4S3)NC(N3C(=O)/C(=C/c4cc(OC)c(OC)c(OC)c4)N=C3c3ccccc3)S5)C2=O)cc(OC)c1OC (centres undefined),TGI,[1],> 100 µM
same,TGI,[2],> 100 µM
same,TGI,[3],> 100 µM
same,TGI,[4],> 100 µM
same,TGI,[5],> 100 µM
same,TGI,[6],> 100 µM
same,TGI,[7],> 100 µM
same,TGI,[8],> 100 µM
same,TGI,[9],> 100 µM
same,TGI,[10],> 100 µM
same,TGI,[11],> 100 µM
same,TGI,[12],95.1 µM
same,TGI,[13],> 100 µM
same,TGI,[14],> 100 µM
same,TGI,[15],> 100 µM
same,TGI,[16],> 100 µM
same,TGI,[17],> 100 µM
same,TGI,[18],> 100 µM
same,TGI,[19],> 100 µM
same,TGI,[20],> 100 µM
same,TGI,[21],> 100 µM
same,TGI,[22],> 100 µM
same,TGI,[23],> 100 µM
same,TGI,[24],> 100 µM
same,TGI,[25],> 100 µM
same,TGI,[26],> 100 µM
same,TGI,[27],> 100 µM
same,TGI,[28],> 100 µM
same,TGI,[29],> 100 µM
same,TGI,[30],> 100 µM
same,TGI,[31],> 100 µM
same,TGI,[32],> 100 µM
same,TGI,[33],> 100 µM
same,TGI,[34],> 100 µM
same,TGI,[35],> 100 µM
same,TGI,[36],> 100 µM
same,TGI,[37],> 100 µM
same,TGI,[38],> 100 µM
same,TGI,[39],> 100 µM
same,TGI,[40],> 100 µM
same,TGI,[41],> 100 µM
same,TGI,[42],> 100 µM
same,TGI,[43],> 100 µM
same,TGI,[44],> 100 µM
same,TGI,[45],> 100 µM
same,TGI,[46],> 100 µM
same,TGI,[47],> 100 µM
same,TGI,[48],> 100 µM
same,TGI,[49],> 100 µM
same,TGI,[50],> 100 µM
same,TGI,[51],> 100 µM
same,TGI,[52],> 100 µM
CC(C)(C)OC(=O)C1=C(C(=O)OC(C)(C)C)SC2(S1)C(C(=O)OC(C)(C)C)=C(C(=O)OC(C)(C)C)Sc1c2ssc1=O,TGI,[1],> 100 µM
same,TGI,[2],> 100 µM
same,TGI,[4],> 100 µM
same,TGI,[5],> 100 µM
same,TGI,[6],> 100 µM
same,TGI,[7],> 100 µM
same,TGI,[53],> 100 µM
same,TGI,[8],> 100 µM
same,TGI,[54],> 100 µM
same,TGI,[9],> 100 µM
same,TGI,[10],> 100 µM
same,TGI,[11],> 100 µM
same,TGI,[12],> 100 µM
same,TGI,[55],> 100 µM
same,TGI,[56],> 100 µM
same,TGI,[13],> 100 µM
same,TGI,[15],> 100 µM
same,TGI,[17],> 100 µM
same,TGI,[18],> 100 µM
same,TGI,[19],> 100 µM
same,TGI,[20],> 100 µM
same,TGI,[21],> 100 µM
same,TGI,[22],> 100 µM
same,TGI,[23],> 100 µM
same,TGI,[57],> 100 µM
same,TGI,[24],> 100 µM
same,TGI,[25],> 100 µM
same,TGI,[26],> 100 µM
same,TGI,[27],> 100 µM
same,TGI,[28],> 100 µM
same,TGI,[29],> 100 µM
same,TGI,[30],> 100 µM
same,TGI,[31],> 100 µM
same,TGI,[32],> 100 µM
same,TGI,[33],95.9 µM
same,TGI,[34],> 100 µM
same,TGI,[36],> 100 µM
same,TGI,[37],> 100 µM
same,TGI,[38],> 100 µM
same,TGI,[39],> 100 µM
same,TGI,[58],> 100 µM
same,TGI,[40],> 100 µM
same,TGI,[42],> 100 µM
same,TGI,[43],> 100 µM
same,TGI,[44],> 100 µM
same,TGI,[45],> 100 µM
same,TGI,[46],> 100 µM
same,TGI,[47],> 100 µM
same,TGI,[48],> 100 µM
same,TGI,[49],> 100 µM
same,TGI,[50],> 100 µM
same,TGI,[51],> 100 µM
same,TGI,[52],> 100 µM
same,TGI,[59],> 100 µM
Cc1ccc(S(=O)(=O)N2CCSCCSCCN(S(=O)(=O)c3ccc(C)cc3)CCN(S(=O)(=O)c3ccc(C)cc3)CC2)cc1,TGI,[1],> 100 µM
same,TGI,[2],> 100 µM
same,TGI,[3],> 100 µM
same,TGI,[4],> 100 µM
same,TGI,[5],> 100 µM
same,TGI,[6],> 100 µM
same,TGI,[7],> 100 µM
same,TGI,[53],> 100 µM
same,TGI,[8],> 100 µM
same,TGI,[54],> 100 µM
same,TGI,[9],> 100 µM
same,TGI,[10],> 100 µM
same,TGI,[11],> 100 µM
same,TGI,[12],> 100 µM
same,TGI,[56],> 100 µM
same,TGI,[13],> 100 µM
same,TGI,[15],> 100 µM
same,TGI,[17],> 100 µM
same,TGI,[18],> 100 µM
same,TGI,[19],> 100 µM
same,TGI,[20],> 100 µM
same,TGI,[21],> 100 µM
same,TGI,[22],> 100 µM
same,TGI,[23],> 100 µM
same,TGI,[57],> 100 µM
same,TGI,[24],> 100 µM
same,TGI,[25],> 100 µM
same,TGI,[26],> 100 µM
same,TGI,[27],> 100 µM
same,TGI,[28],> 100 µM
same,TGI,[29],> 100 µM
same,TGI,[30],> 100 µM
same,TGI,[31],> 100 µM
same,TGI,[32],> 100 µM
same,TGI,[33],> 100 µM
same,TGI,[34],> 100 µM
same,TGI,[35],> 100 µM
same,TGI,[36],> 100 µM
same,TGI,[37],> 100 µM
same,TGI,[38],> 100 µM
same,TGI,[39],> 100 µM
same,TGI,[58],> 100 µM
same,TGI,[40],> 100 µM
same,TGI,[41],> 100 µM
same,TGI,[42],> 100 µM
same,TGI,[43],> 100 µM
same,TGI,[44],> 100 µM
same,TGI,[45],> 100 µM
same,TGI,[46],> 100 µM
same,TGI,[47],> 100 µM
same,TGI,[48],> 100 µM
same,TGI,[49],> 100 µM
same,TGI,[50],> 100 µM
same,TGI,[51],> 100 µM
same,TGI,[52],> 100 µM
same,TGI,[59],> 100 µM
N#Cc1c[nH]n2ccnc12,TGI,[1],> 100 µM
same,TGI,[2],> 100 µM
same,TGI,[3],> 100 µM
same,TGI,[4],> 100 µM
same,TGI,[5],> 100 µM
same,TGI,[6],> 100 µM
same,TGI,[7],> 100 µM
same,TGI,[53],> 100 µM
same,TGI,[54],> 100 µM
same,TGI,[9],> 100 µM
same,TGI,[10],> 100 µM
same,TGI,[11],> 100 µM
same,TGI,[55],> 100 µM
same,TGI,[56],> 100 µM
same,TGI,[13],> 100 µM
same,TGI,[14],> 100 µM
same,TGI,[15],> 100 µM
same,TGI,[16],> 100 µM
same,TGI,[17],> 100 µM
same,TGI,[18],> 100 µM
same,TGI,[19],> 100 µM
same,TGI,[20],> 100 µM
same,TGI,[21],> 100 µM
same,TGI,[22],> 100 µM
same,TGI,[23],> 100 µM
same,TGI,[57],> 100 µM
same,TGI,[24],> 100 µM
same,TGI,[25],> 100 µM
same,TGI,[26],> 100 µM
same,TGI,[27],> 100 µM
same,TGI,[28],> 100 µM
same,TGI,[30],> 100 µM
same,TGI,[31],> 100 µM
same,TGI,[32],> 100 µM
same,TGI,[33],> 100 µM
same,TGI,[34],> 100 µM
same,TGI,[35],> 100 µM
same,TGI,[36],> 100 µM
same,TGI,[37],> 100 µM
same,TGI,[38],> 100 µM
same,TGI,[39],> 100 µM
same,TGI,[58],> 100 µM
same,TGI,[42],> 100 µM
same,TGI,[43],> 100 µM
same,TGI,[44],> 100 µM
same,TGI,[45],> 100 µM
same,TGI,[46],> 100 µM
same,TGI,[47],> 100 µM
same,TGI,[48],> 100 µM
same,TGI,[50],> 100 µM
same,TGI,[51],> 100 µM
same,TGI,[52],> 100 µM
